What was measured:
[1] = test system: retinal ganglion cells (RGCs); assay: Experimental autoimmune uveitis (EAU), RGC survival; type: in vivo; conditions: R16-immunized Lewis rats, i.p. on days 3, 6, 9, 12 and 17; counted 3 weeks after immunization; mean±SD
Description: Induction of experimental autoimmune uveitis. To induce experimental autoimmune uveitis (EAU), Lewis rats were immunized with R16 (30 μg), a peptide derived from an ocular antigen IRBP emulsified in CFA containing 2.5 mg/ml M. tuberculosis. A total volume of 100 μl was injected s.c. into each rat at the root of the tail. Rats were then divided into three groups. On days 3, 6, 9, 12 and 17 after immunization the rats in the first group were injected i.p. with CSPG-DS (15 μg/rat), and rats in the second group were injected i.p. with methylprednisolone (MP. 30 mg/kg; Solu-Medrol, 125 mg/ml, Pharmacia & Upjohn, Puurs, Belgium). Rats in third group were left untreated.

PC12 cells [2] = assay: LPA-induced neurite retraction in differentiated PC12 cells; type: cell-based, rat; conditions: NGF-differentiated PC12 cells, LPA 1 μg/ml, 20 min
Description: PC12 cell line: Rat pheochromocytoma (PC12) cells were cultured in DMEM containing 8% horse serum and either 8% FCS (culture medium) or 1% FCS (differentiation medium), and antibiotics. For assays of neurite outgrowth, the cells were plated (10^5 cell/well) on 13-mm glass coverslips, precoated with collagen (500 μg/ml) in 24-well plates. Treatment of PC12 cells with lysophosphatidic acid (LPA). PC12 cells were placed and were differentiated for 3 days in the presence of 100 ng/ml NGF, in collagen-precoated culture dishes (Corning). […] The cells were then fixed with 4% paraformaldehyde (PFA) and analyzed by Nomarski microscopy. The longest neurite of each cell was measured and the results are expressed as their mean±SEM.

PC12 cells [3] = assay: Neurite outgrowth assay in NGF-stimulated PC12 cells; type: cell-based, rat; conditions: PC12 cells, NGF 10 ng/ml
Description: PC12 cell line: Rat pheochromocytoma (PC12) cells were cultured in DMEM containing 8% horse serum and either 8% FCS (culture medium) or 1% FCS (differentiation medium), and antibiotics. For assays of neurite outgrowth, the cells were plated (10^5 cell/well) on 13-mm glass coverslips, precoated with collagen (500 μg/ml) in 24-well plates. Neurite outgrowth assays: PC12 cells were cultured for 24-72 h while being stimulated with 10 ng/ml NGF, with or without CSPG-DSs. Cell morphology was visualized under a phase-contrast microscope and neurite lengths were measured using ImagePro. At least 200 cells were measured for each condition.

## C[C@H]1C[C@@H]2[C@H]([C@@H](O)C[C@@]3(C)[C@H]2CC[C@]3(O)C(=O)COC(=O)CCC(=O)[O-])[C@@]2(C)C=CC(=O)C=C12.[Na+] [MP, reference compound]
[1]
  RGC loss relative to normal rats: 59±1.6%

## lysophosphatidic acid [LPA, reference compound]
PC12 cells [2]
  neurite collapse by LPA alone: induced neurite collapse

## CC(=O)N[C@H]1C(O)O[C@H](CO)[C@H](O)[C@@H]1O[C@@H]1OC(C(=O)O)=C[C@H](O)[C@H]1O (stereo partly drawn) [Di-0S, 2-acetamido-2-deoxy-3-O-(β-D-gluco-4-enepyranosyluronic acid)-D-galactose]
PC12 cells [3]
  effect on neurite outgrowth: no effect

Source: patent publication US20070010484A1, “Method for treating or inhibiting the effects of injuries or diseases that result in neuronal degeneration and method for promoting neurogenesis” (YEDA RESEARCH AND DEVELOPMENT CO. LTD., priority 2003, published 2007)
